US11959104B2, “Methods of differentiating stem cell-derived ectodermal lineage precursors” (MEMORIAL SLOAN-KETTERING CANCER CENTER, priority 2016, dated 2024)
Entries after “also recorded” stand apart in the source; their conditions may differ. Where two headings read alike, the source gives them in different places. Ends that are not written are not given here.

Experiments:
[1] = system: hPSC-derived pituitary cells; test: Stimulation of hormone release in vitro (ELISA); assay type: cell-based, human; conditions: day 30 of differentiation
Protocol: To stimulate hormone release in vitro, cells were differentiated in 24 well plates as described above. On day 30 of differentiation cells were washed once with PBS and 250 μl of fresh medium containing either the solvent or the stimulant were added to each well. After 12 h the supernatant was removed and centrifuged for 5 min at 2000 g to pellet debris. Supernatant was transferred into fresh reaction tubes, flash frozen and stored at −80° C. until ELISA measurements. Stimulants used were: CRF (Tocris, 1 μM), Stressin I (Tocris, 2 μM), Ghrelin (Tocris, 1 μM), Somatocrinin (Accurate Chemical, 1 μg/ml), Nafarelin (Tocris, 1 μM) and Urocortin (Tocris, 500 nM).
Hormone concentration in the supernatant of cells or in animal serum was analyzed using ELISA measurements. Hormone concentration in the cell culture supernatant was assessed using traditional single hormone ELISA Kits according to the manufactures manual. ACTH (Calbiotech, detects rat and human ACTH), hGH (R&D Systems, human specific), FSH (Calbiotech, FSH (lumELISA, human specific) and corticosterone (Abcam). Plates were read using an EnSpire Multimode plate reader (PerkinElmer). Hormone concentration in in vivo samples was analyzed using either traditional ELISA (for ACTH only, serum diluted 1:2) or species specific (human or rat) Milliplex multiplex ELISA using Luminex technology (Millipore). Magnetic bead-based sandwich immunoassay was performed according to the manufactures manual. 25 μl of undiluted serum samples in duplicate wells were analyzed by Luminex FlexMap 3D (Luminex Corp, Austin, TX). Cytokine concentrations were determined by Luminex Xponent 4.1 and EMD-Millipore Milliplex Analyst v5.1 using 5-p log analysis.

hPSCs = test: Toxicity of KSR-protocol small molecule concentrations in E6 differentiation; assay type: cell-based, human; conditions: original KSR-protocol concentration used in E6
Description: To transition these protocols into the more defined E6 media, we adapted hPSCs in E8 for multiple passages and simply replaced the KSR-based medium with an E6 based differentiation while maintaining factors and concentrations as described previously to trigger the 4 major ectodermal lineages (FIG. 9A). […] After determining an optimal non-toxic concentration for each of the small molecules we observed that NE formation under E6 conditions was equivalent to that obtained with KSR-based conditions. […] We compared the efficiency of generating PAX6 positive cells using either no small molecules, using dSMADi or using the single TGFβ inhibitor SB431542 (SB). We found robust PAX6 expression in the absence of dSMADi (˜40% of total cells on day 12 post induction). However, the percentage of cells expressing PAX6 was further improved upon addition of SB or dSMADi to nearly 90% and 80%, respectively (FIGS. 1E and 9B).

[2] = system: hPSC-derived cranial placode; test: Pituitary placode induction, day 15 (qRT-PCR, immunofluorescence); assay type: cell-based; conditions: for induction of anterior pituitary genes / lineage markers: from day 4, day 15 analysis
Protocol: For pituitary differentiation cells were plated at 250 000 cells/cm^2 on VTN-N coated dishes (differentiation works best in 24 well plates) in E8+10 μM Y-27632. After 24 h (day 0) medium was changed to E6 supplemented with 10 μM SB431542 and 5 ng/ml BMP4 (R&D Systems). Medium was changed every day. On day 3 BMP4 was removed from the medium and cells were cultured for 1 day in E6+10 μM SB431542. For the standard differentiation conditions, on day 4 E6 was supplemented with 10 μM SB431542, 200 ng/ml SHH (R&D Systems, C25II), 100 ng/ml FGF8b (R&D Systems) and 50 ng/ml FGF10 (Peprotech Inc.). For some experiments SHH was replaced by 1 μM purmorphamine (Stemgent) or 1 μM SAG (Stemcell Technologies). From now on medium volume was doubled and cells were feed every other day until day 15. On day 15 of differentiation SIX1 H2B::GFP^+ cells were sorted using a BDFACS Aria III cell sorter. Purified cells were then plated as droplets (50 000 cells/10 μl drop) in E6 supplemented with 10 Y-27632, 200 ng/ml SHH, 100 ng/ml FGF8b and 50 ng/ml FGF10 on polyornithine/laminin/fibronectin-coated plates. After 24 h medium was changed to E6 containing SHH, FGF8 and FGF10 until day 30. Medium was changed every other day. For some experiments pituitary induction was started slightly later (day 6) or cells were differentiated in medium conditioned by hypothalamic neuroectoderm from either day 4 or day 6 on. For the co-culture experiment SIX1 H2B::GFP positive cells were sorted on day 6 and 50 000 cells/cm^2 were plated directly on hypothalamic neuroectodermal cells in E6 only supplemented with 10 SB431542.
Total RNA was extracted from at least 3 independent experiments using the TRIzol (Fisher Scientific) reagent in combination with Phase-lock tubes (5Prime) according to the manufactures protocol. 1 μg of total RNA was reverse transcribed into cDNA using iScript (BioRad). For quantitative RT PCR we used the SSoFast EvaGreen Mix (BioRad) in combination with QuantiTect primer assays (Qiagen) on a BioRad CFX96 Thermal Cycler. All reactions were run according to the manufacturer's protocol. Results are calculated using the ΔΔCt method (Livak and Schmittgen, 2001).
After washing the cells once with PBS, cells were fixed with 4% (v/v) paraformaldehyde for 20 min, washed twice with PBS, permeabilized using 0.1% (v/v) Triton X-100 in PBS, Cells were blocked with 10% (v/v) FCS in PBS for 1-5 h at room temperature. Cells were incubated with primary antibodies diluted in 2% FCS (v/v) in PBS at 4° C. overnight. A list of the primary antibodies used in this study is provided as FIG. 28. […] After and additional 2 washing steps, fluorescence images of the cells were taken using an Olympus IX71 inverted microscope equipped with a Hamamatsu ORCA CCD camera.

[3] = system: Six1::H2B-GFP reporter line; test: LOPAC small molecule screen and validation for enhanced CP induction
Protocol: All differentiations starting from E8 were dissociated into single cells using EDTA and replated at high density in E8 with the ROCK inhibitor (Tocris). Cells were typically seeded at a density of 200,000 cells/cm^2 on Matrigel coated dishes. Switching from E8 to E6 triggered differentiations (i.e. d0). Neuroectoderm (NE) formation was generated by culturing the cells in E6 with 10 nM SB and 500 nM LDN until d12. Neural Crest (NC) was first treated with 10 nM SB, 600 nM CHIR and 1 ng/ml BMP4 from d0-d2. […] Lens placode was first treated with 10 nM SB and 5 ng/ml BMP4 from d0-d2. At d2, cells were maintained in 10 nM SB with 100 ng/ml FGF2 until d12. Trigeminal placode was first treated with 10 nM SB and 5 ng/ml BMP4 from d0-d2. At d2, CHIR was added to the SB and BMP4 until d4. Finally, non-neural ectoderm (NNE) was treated with 10 nM SB, 10 nM SU5402 and 20 ng/ml BMP4 until d12.

hPSC [4] = test: BMP dose response for TFAP2A, NNE and CP induction in E6 media; assay type: cell-based, human
Protocol: (§1) All differentiations starting from E8 were dissociated into single cells using EDTA and replated at high density in E8 with the ROCK inhibitor (Tocris). Cells were typically seeded at a density of 200,000 cells/cm^2 on Matrigel coated dishes. Switching from E8 to E6 triggered differentiations (i.e. d0). Neuroectoderm (NE) formation was generated by culturing the cells in E6 with […] and 500 nM LDN until d12. Neural Crest (NC) was first treated with […], 600 nM CHIR and 1 ng/ml BMP4 from d0-d2. At d2, cells were maintained in […] with 1.5 uM CHIR until d12. Lens placode was first treated with […] and 5 ng/ml BMP4 from d0-d2. At d2, cells were maintained in […] with 100 ng/ml FGF2 until d12. Trigeminal placode was first treated with […] and 5 ng/ml BMP4 from d0-d2. At d2, CHIR was added to the SB and BMP4 until d4. Finally, non-neural ectoderm (NNE) was treated with 10 nM SB, 10 nM SU5402 and 20 ng/ml BMP4 until d12.

hPSC [5] = test: Neural crest induction, SOX10 positive cells; assay type: cell-based, human
Protocol: as §1

[6] = three-day pulse with SB431542, dose-response

Molecule: Somatocrinin: stimulant of hormone release (Accurate Chemical, 1 μg/ml) (YADAIFTNSYRKVLGQLSARKLLQDIMSRQQGESNQERGARARL; ends and bridges not checked; UniProt P01286 32-75, looked up)
- GH release [1]: induced
- ACTH release ([1]; listed as somatocrinin): did not trigger ACTH release
- GH release ([1]; listed as somatocrinin): triggered robust increase in GH release

Molecule: CRF: stimulant of hormone release (Tocris, 1 μM) (SEEPPISLDLTFHLLREVLEMARAEQLAQQAHSNRKLMEII; ends and bridges not checked; UniProt P06850 154-194, looked up)
- ACTH release [1]: induced release of ACTH; also recorded: specifically induced

Molecule: Cc1c[nH]c(/C=C2\C(=O)Nc3ccccc32)c1CCC(=O)O [SU5402, 2-[(1,2-Dihydro-2-oxo-3H-indol-3-ylidene)methyl]-4-methyl-1H-pyrrole-3-pr-opanoic acid]
- cell killing during differentiation (hPSCs): effectively killed the cells

Molecule: CNC1CCC(N(Cc2cccc(-c3ccncc3)c2)C(=O)c2sc3ccccc3c2Cl)CC1 (centres unmarked) [SAG]
- induction of anterior pituitary genes / lineage markers [2]: robust induction of anterior pituitary-lineage markers
- cell death ([2]; small-molecule-based induction replacing SHH): increase in cell death

Molecule: Ghrelin: stimulant of hormone release (Tocris, 1 μM) (GSSFLSPEHQRVQQRKESKKPPAKLQPR; also: octanoylated, site not given here; UniProt Q9UBU3 24-51, looked up)
- ACTH release [1]: did not trigger ACTH release

Molecule: c1cnc2c(c1)ccc1cccnc12 [Phenantroline]
- percentage of cells expressing Six1 (hit validation) ([3]; CP protocol): confirmed to reliably enhance the percentage of cells expressing Six1
- Six1 positive cells ([3]; CP protocol in the absence of FGF2, control 18%): 69%
- expression of Six1 versus control differentiations (primary screen hit) ([3]; LOPAC screen, CP protocol): increased expression of SIX1
- fold increase of Six1 positive cells ([3]; absence of FGF2, 69% versus 18%): ~4 fold
- expression of other lineage markers such as Sox10, T, MyoD or Sox17 ([3]; differentiation towards CP): without inducing the expression of other lineage markers
- increase in Six1 expression over controls ([3]; differentiation towards CP): five-fold

Molecule: Urocortin: stimulant of hormone release (Tocris, 500 nM) (DNPSLSIDLTFHLLRTLLELARTQSQRERAEQNRIIFDSV; ends and bridges not checked; UniProt P55089 83-122, looked up)
- ACTH release [1]: specifically induced
- ACTH release ([1]; listed as urocortin): induced release of ACTH

Molecule: c1ccc2c(Oc3nc(Nc4ccc(N5CCOCC5)cc4)c4ncn(C5CCCCC5)c4n3)cccc2c1 [purmorphamine]
- cell death [2]: increase in cell death
- induction of anterior pituitary genes / lineage markers [2]: robust induction of anterior pituitary-lineage markers

B1: BMP4: activator of BMP signaling (protein, UniProt P12644 293-408, looked up)
Bone morphogenetic protein 4: SPKHHSQRARKKNKNCRRHSLYVDFSDVGWNDWIVAPPGYQAFYCHGDCPFPLADHLNSTNHAIVQTLVNSVNSSIPKACCVPTELSAISMLYLDEYDKVVLKNYQEMVVEGCGCR
- BMP4 concentration optimal for CP induction (hPSC [4]; [6]): around 5 ng/ml
- SOX10 positive NC population generated (hPSC [5]; short pulse of BMP4 (1 ng/ml) with Wnt activation and SB431542): nearly homogenous SOX10 positive NC population
- BMP4 concentration giving strong NC induction (hPSC [5]; [6]): around 1 ng/ml

B2: BMP: BMP signaling activator used in E6 media, BMP4 per methods (protein, UniProt P12644 293-408, looked up)
Bone morphogenetic protein 4: SPKHHSQRARKKNKNCRRHSLYVDFSDVGWNDWIVAPPGYQAFYCHGDCPFPLADHLNSTNHAIVQTLVNSVNSSIPKACCVPTELSAISMLYLDEYDKVVLKNYQEMVVEGCGCR
- marker phenotype at high BMP (NNE) (hPSC [4]; 20 ng/ml BMP): cells become TFAP2A positive and lack the expression of SOX10 and SIX1
- TFAP2A expression (hPSC [4]; within three days, with SB431542 in E6 media, dose dependent): rapidly upregulated
